Laboratory results published in paper PMC4770715, “LIM kinase inhibitors disrupt mitotic microtubule organization and impair tumor cell proliferation” (Oncotarget, 2015).

Columns and labels:
Assay in all cases: biochemical
Parameters in all cases: KINOMEscan active-site competition binding, percent of control (100 = no competition)
Details in all cases: competition binding, percent control
[1] = molecular target: MAP3K4 (Homo sapiens, UniProt Q9Y6R4)
[2] = molecular target: WEE1 (Homo sapiens, UniProt P30291)
Chain of WEE1 (P30291 whole entry): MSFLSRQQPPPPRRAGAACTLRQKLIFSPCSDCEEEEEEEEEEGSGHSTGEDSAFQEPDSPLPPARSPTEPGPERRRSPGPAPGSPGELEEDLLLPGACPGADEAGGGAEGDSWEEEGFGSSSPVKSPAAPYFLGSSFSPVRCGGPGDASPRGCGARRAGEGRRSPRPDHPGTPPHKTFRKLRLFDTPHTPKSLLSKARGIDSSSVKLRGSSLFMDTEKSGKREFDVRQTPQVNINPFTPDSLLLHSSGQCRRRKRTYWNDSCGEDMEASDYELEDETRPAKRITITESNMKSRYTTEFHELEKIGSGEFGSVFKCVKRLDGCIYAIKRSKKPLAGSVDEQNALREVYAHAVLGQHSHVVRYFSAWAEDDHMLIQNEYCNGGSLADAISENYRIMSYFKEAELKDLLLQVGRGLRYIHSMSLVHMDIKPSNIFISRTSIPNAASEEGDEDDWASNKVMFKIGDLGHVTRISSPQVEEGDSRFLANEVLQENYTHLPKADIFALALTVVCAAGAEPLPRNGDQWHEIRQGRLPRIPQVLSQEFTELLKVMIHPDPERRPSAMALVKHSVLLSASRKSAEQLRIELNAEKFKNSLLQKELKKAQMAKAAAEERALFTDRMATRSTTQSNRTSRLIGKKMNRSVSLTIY

[3] = molecular target: MAK (Homo sapiens, UniProt P20794)
[4] = molecular target: EIF2AK1 (Homo sapiens, UniProt Q9BQI3)
[5] = molecular target: MAP3K15 (Homo sapiens, UniProt Q6ZN16)
[6] = molecular target: CHEK2 (Homo sapiens, UniProt O96017)
[7] = molecular target: CAMK2D (Homo sapiens, UniProt Q13557)
Chain of CAMK2D (Q13557 whole entry): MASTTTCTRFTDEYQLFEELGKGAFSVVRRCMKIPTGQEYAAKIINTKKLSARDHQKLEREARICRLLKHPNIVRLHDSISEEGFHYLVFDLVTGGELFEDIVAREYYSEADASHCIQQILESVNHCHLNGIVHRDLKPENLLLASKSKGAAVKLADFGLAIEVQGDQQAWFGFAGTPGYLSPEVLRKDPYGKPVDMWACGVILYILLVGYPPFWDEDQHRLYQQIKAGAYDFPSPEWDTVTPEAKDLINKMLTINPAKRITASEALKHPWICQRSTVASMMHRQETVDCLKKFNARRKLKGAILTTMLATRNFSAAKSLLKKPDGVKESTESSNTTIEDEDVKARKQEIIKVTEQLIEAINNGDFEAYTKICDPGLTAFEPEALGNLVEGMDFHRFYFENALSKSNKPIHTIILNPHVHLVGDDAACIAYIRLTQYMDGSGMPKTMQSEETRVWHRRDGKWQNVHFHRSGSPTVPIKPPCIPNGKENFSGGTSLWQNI

[8] = molecular target: CDK2 (Homo sapiens, UniProt P24941)
[9] = molecular target: PRKCE (Homo sapiens, UniProt Q02156)
[10] = molecular target: TNNI3K (Homo sapiens, UniProt Q59H18)
[11] = molecular target: T1, ABL1(E255K)-phosphorylated (Homo sapiens, UniProt P00519, E255K)
T1 construct: phosphorylated

[12] = molecular target: ACVRL1 (Homo sapiens, UniProt P37023)
[13] = molecular target: T2, TYK2(JH1domain-catalytic) (Homo sapiens, UniProt P29597)
T2 construct: JH1domain-catalytic
T2 sequence (P29597 whole entry): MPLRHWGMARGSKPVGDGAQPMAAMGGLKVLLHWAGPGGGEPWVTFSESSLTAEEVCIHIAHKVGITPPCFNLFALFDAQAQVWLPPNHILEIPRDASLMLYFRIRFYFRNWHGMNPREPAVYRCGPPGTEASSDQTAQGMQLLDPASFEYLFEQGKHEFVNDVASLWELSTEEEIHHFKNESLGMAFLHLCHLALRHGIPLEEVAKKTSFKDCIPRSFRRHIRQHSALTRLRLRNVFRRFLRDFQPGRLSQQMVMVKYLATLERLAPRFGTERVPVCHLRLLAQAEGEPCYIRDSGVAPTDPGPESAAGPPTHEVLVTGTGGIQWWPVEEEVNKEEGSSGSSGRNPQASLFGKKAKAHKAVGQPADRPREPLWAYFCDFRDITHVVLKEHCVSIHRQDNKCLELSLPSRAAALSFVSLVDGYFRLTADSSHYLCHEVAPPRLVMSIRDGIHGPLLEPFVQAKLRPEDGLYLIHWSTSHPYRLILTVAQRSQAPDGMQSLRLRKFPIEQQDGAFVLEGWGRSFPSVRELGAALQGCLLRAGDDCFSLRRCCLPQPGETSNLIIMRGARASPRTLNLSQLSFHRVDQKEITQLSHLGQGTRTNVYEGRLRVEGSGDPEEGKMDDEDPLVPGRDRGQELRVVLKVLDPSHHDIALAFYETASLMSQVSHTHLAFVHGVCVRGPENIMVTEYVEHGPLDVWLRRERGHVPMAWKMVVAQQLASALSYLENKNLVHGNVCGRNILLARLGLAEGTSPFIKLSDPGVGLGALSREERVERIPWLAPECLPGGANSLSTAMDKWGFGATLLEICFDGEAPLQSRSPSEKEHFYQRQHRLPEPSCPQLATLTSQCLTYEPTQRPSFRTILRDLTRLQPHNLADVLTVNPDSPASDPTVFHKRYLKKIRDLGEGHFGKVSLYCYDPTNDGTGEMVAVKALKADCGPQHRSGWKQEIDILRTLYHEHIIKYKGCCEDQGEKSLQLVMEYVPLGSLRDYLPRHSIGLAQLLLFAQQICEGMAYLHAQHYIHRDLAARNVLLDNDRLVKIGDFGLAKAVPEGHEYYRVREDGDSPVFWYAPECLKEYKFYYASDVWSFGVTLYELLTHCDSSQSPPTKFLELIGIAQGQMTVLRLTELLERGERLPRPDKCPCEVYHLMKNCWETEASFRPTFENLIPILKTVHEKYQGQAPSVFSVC

[14] = molecular target: AURKB (Homo sapiens, UniProt Q96GD4)
Chain of AURKB (Q96GD4 whole entry): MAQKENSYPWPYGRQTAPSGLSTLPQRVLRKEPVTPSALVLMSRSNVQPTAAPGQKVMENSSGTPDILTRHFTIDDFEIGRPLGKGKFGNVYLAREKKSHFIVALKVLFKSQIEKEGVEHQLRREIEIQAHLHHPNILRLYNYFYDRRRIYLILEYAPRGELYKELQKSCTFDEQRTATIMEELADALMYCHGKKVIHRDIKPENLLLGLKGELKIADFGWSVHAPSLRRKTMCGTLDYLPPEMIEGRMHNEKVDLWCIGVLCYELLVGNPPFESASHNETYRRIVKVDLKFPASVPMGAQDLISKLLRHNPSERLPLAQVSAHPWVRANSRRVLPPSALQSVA

[15] = molecular target: T3, JNK1 (Homo sapiens, UniProt P45983)
T3 construct: gene MAPK8

[16] = molecular target: DAPK2 (Homo sapiens, UniProt Q9UIK4)
Chain of DAPK2 (Q9UIK4 whole entry): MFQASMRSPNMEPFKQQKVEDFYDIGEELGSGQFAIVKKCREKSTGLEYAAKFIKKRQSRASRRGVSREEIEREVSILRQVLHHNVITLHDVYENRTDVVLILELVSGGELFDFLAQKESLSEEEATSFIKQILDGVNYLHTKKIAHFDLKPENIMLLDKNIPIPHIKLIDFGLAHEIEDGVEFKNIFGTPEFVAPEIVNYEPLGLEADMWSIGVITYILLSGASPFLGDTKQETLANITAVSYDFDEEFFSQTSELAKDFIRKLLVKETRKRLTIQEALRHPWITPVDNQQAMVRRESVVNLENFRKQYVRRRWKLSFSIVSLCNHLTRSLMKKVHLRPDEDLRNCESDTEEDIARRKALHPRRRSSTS

[17] = molecular target: MTOR (Homo sapiens, UniProt P42345)
[18] = molecular target: T4, p38-gamma (Homo sapiens, UniProt P53778)
T4 construct: gene MAPK12
T4 sequence (P53778 whole entry): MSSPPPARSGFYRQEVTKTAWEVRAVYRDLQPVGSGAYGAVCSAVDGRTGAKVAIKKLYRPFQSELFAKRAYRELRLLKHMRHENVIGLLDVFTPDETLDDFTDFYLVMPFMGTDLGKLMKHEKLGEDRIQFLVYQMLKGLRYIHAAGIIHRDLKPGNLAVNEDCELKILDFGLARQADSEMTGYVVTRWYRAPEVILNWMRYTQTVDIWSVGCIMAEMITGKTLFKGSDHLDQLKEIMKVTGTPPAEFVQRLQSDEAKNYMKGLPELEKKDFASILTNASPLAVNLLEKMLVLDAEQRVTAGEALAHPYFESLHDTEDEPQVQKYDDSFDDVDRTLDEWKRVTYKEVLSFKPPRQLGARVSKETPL

[19] = molecular target: KIT(V559D,T670I) (Homo sapiens, UniProt P10721, T670I/V559D)
[20] = molecular target: BMPR1A (Homo sapiens, UniProt P36894)
Chain of BMPR1A (P36894 whole entry): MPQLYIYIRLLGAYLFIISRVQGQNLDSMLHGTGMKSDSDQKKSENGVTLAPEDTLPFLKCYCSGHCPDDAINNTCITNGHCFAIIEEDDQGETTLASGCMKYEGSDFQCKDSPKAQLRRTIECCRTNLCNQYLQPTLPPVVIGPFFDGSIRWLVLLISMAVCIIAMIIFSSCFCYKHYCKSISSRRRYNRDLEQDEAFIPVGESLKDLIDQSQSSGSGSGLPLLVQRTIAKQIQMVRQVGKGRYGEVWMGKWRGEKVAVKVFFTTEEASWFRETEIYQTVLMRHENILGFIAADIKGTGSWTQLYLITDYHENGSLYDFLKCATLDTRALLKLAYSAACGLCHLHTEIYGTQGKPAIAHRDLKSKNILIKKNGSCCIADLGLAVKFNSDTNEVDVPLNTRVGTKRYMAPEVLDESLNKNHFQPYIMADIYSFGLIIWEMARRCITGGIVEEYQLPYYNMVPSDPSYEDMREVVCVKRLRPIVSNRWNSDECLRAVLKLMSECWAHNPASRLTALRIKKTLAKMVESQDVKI

[21] = molecular target: FGFR3(G697C) (Homo sapiens, UniProt P22607, G697C)
[22] = molecular target: CAMKK2 (Homo sapiens, UniProt Q96RR4)
Chain of CAMKK2 (Q96RR4 whole entry): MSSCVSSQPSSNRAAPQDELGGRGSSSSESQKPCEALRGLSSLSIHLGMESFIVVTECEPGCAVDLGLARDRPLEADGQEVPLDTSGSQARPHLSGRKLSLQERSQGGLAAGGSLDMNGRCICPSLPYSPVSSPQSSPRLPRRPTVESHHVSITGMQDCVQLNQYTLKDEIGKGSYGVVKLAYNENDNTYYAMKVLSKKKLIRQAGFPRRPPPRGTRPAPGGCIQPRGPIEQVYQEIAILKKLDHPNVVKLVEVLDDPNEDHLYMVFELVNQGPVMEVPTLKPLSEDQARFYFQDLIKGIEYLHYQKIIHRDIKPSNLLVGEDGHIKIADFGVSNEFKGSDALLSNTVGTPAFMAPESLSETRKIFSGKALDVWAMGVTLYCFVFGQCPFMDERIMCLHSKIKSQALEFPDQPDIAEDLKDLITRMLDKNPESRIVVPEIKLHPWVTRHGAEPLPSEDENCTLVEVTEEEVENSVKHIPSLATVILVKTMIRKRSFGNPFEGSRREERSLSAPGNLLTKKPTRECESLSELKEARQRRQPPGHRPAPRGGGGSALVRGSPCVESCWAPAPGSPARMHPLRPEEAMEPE

[23] = molecular target: CAMK2A (Homo sapiens, UniProt Q9UQM7)
Chain of CAMK2A (Q9UQM7 whole entry): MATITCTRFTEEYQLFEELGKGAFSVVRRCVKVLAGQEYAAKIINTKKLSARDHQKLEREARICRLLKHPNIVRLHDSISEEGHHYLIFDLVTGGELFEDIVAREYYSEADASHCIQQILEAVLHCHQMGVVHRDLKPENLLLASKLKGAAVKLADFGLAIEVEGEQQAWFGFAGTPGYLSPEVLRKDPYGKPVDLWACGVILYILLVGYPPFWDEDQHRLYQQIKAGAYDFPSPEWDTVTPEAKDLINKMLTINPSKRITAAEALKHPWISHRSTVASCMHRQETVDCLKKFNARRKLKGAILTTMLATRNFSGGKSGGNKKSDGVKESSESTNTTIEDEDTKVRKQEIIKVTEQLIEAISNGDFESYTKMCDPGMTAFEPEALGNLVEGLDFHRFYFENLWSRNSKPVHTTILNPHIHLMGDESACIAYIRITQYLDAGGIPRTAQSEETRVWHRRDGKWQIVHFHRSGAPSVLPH

COc1ccc(-c2cnccc2-c2cnc(NC(=O)C(C)C)s2)c(C(F)(F)F)c1 [CRT0105446, N-{5-[3-(4-Methoxy-2-trifluoromethyl-phenyl)-pyridin-4-yl]-hiazol-2-yl}-isobutyramide]
remaining binding at 10 µM [1]: 99%
remaining binding at 10 µM [2]: 87%
remaining binding at 10 µM [3]: 0.6%
remaining binding at 10 µM [4]: 100%
remaining binding at 10 µM [5]: 93%
remaining binding at 10 µM [6]: 100%
remaining binding at 10 µM [7]: 72%
remaining binding at 10 µM [8]: 0.9%
remaining binding at 10 µM [9]: 72%
remaining binding at 10 µM [10]: 93%
remaining binding at 10 µM [11]: 78%
remaining binding at 10 µM [12]: 100%
remaining binding at 10 µM [13]: 72%
remaining binding at 10 µM [14]: 80%
remaining binding at 10 µM [15]: 34%
remaining binding at 10 µM [16]: 87%
remaining binding at 10 µM [17]: 64%
remaining binding at 10 µM [18]: 100%
remaining binding at 10 µM [19]: 74%
remaining binding at 10 µM [20]: 100%
remaining binding at 10 µM [21]: 93%
remaining binding at 10 µM [22]: 95%
remaining binding at 10 µM [23]: 82%

Cc1ccc(-c2cnccc2-c2cnc(Nc3ccc(O)cc3)s2)c(Cl)c1 [CRT0105950, 4-{5-[3-(2-Chloro-4-methyl-phenyl)-pyridin-4-yl]-thiazol-2-ylamino}-phenol]
remaining binding at 10 µM [1]: 100%
remaining binding at 10 µM [2]: 48%
remaining binding at 10 µM [3]: 2%
remaining binding at 10 µM [4]: 97%
remaining binding at 10 µM [5]: 82%
remaining binding at 10 µM [6]: 55%
remaining binding at 10 µM [7]: 29%
remaining binding at 10 µM [8]: 0.2%
remaining binding at 10 µM [9]: 55%
remaining binding at 10 µM [10]: 43%
remaining binding at 10 µM [11]: 79%
remaining binding at 10 µM [12]: 100%
remaining binding at 10 µM [13]: 25%
remaining binding at 10 µM [14]: 0.15%
remaining binding at 10 µM [15]: 40%
remaining binding at 10 µM [16]: 53%
remaining binding at 10 µM [17]: 35%
remaining binding at 10 µM [18]: 100%
remaining binding at 10 µM [19]: 36%
remaining binding at 10 µM [20]: 91%
remaining binding at 10 µM [21]: 7.2%
remaining binding at 10 µM [22]: 43%
remaining binding at 10 µM [23]: 33%
